Test: Inhibition of Trypanosoma cruzi trans-sialidase after 15 mins

SMILES | IC50 [µM]
O=C(CO)N[C@H]1[C@@H](OCc2ccccc2)O[C@H](CO)[C@@H](O[C@@H]2O[C@@H]([C@H](O)CO)[C@H](O)[C@H]2O[C@@H]2O[C@H](CO)[C@H](O)[C@H](O)[C@H]2O)[C@@H]1O | 1670
O=C(COCc1ccccc1)N[C@H]1[C@@H](OCc2ccccc2)O[C@H](CO[C@@H]2O[C@H](CO)[C@H](O)[C@H](O)[C@H]2O)[C@@H](O[C@H]2O[C@H]([C@@H](O)CO)[C@@H](O)[C@@H]2O)[C@@H]1O | 860
CC(=O)N[C@H]1[C@@H](OCc2ccccc2)O[C@H](CO[C@@H]2O[C@H](CO)[C@H](O)[C@H](O)[C@H]2O)[C@@H](O)[C@@H]1O | 2220
O=C(CO)N[C@H]1[C@H](OCc2ccccc2)O[C@@H](CO[C@@H]2O[C@H](CO)[C@H](O)[C@H](O[C@H]3O[C@@H](CO)[C@@H](O)[C@@H](O)[C@@H]3O)[C@H]2O[C@@H]2O[C@H](CO)[C@H](O)[C@H](O)[C@H]2O)[C@H](O[C@@H]2O[C@@H]([C@H](O)CO)[C@H](O)[C@H]2O)[C@H]1O | 610
OC[C@@H]1O[C@H](O[C@@H]2[C@H](O)[C@H](CO)O[C@H](OCc3ccccc3)[C@H]2O[C@@H]2O[C@H](CO)[C@H](O)[C@H](O)[C@H]2O)[C@@H](O)[C@H](O)[C@@H]1O | 1130
O=C(COCc1ccccc1)N[C@H]1[C@@H](OCc2ccccc2)O[C@H](CO)[C@@H](O[C@@H]2O[C@@H]([C@H](O)CO)[C@H](O)[C@H]2O[C@@H]2O[C@H](CO)[C@H](O)[C@H](O)[C@H]2O)[C@@H]1O | 850
CC(=O)N[C@H]1[C@@H](OCc2ccccc2)O[C@H](CO[C@@H]2O[C@H](CO)[C@H](O)[C@H](O)[C@H]2O)[C@@H](O[C@H]2O[C@H]([C@@H](O)CO)[C@@H](O)[C@@H]2O)[C@@H]1O | 1330
CC(=O)N[C@H]1[C@H](OCc2ccccc2)O[C@@H](CO[C@@H]2O[C@H](CO)[C@H](O)[C@H](O[C@H]3O[C@@H](CO)[C@@H](O)[C@@H](O)[C@@H]3O)[C@H]2O[C@@H]2O[C@H](CO)[C@H](O)[C@H](O)[C@H]2O)[C@H](O[C@@H]2O[C@@H]([C@H](O)CO)[C@H](O)[C@H]2O)[C@H]1O | 850
O=C(CO)N[C@H]1[C@@H](OCc2ccccc2)O[C@H](CO[C@@H]2O[C@H](CO)[C@H](O)[C@H](O)[C@H]2O)[C@@H](O[C@H]2O[C@H]([C@@H](O)CO)[C@@H](O)[C@@H]2O)[C@@H]1O | 940
O=C(COCc1ccccc1)N[C@H]1[C@@H](OCc2ccccc2)O[C@H](CO[C@@H]2O[C@H](CO)[C@H](O)[C@H](O)[C@H]2O)[C@@H](O)[C@@H]1O | 1110
CC(=O)N[C@H]1[C@@H](OCc2ccccc2)O[C@H](CO)[C@@H](O[C@@H]2O[C@@H]([C@H](O)CO)[C@H](O)[C@H]2O[C@@H]2O[C@H](CO)[C@H](O)[C@H](O)[C@H]2O)[C@@H]1O | 4430
O=C(COCc1ccccc1)N[C@H]1[C@H](OCc2ccccc2)O[C@@H](CO[C@@H]2O[C@H](CO)[C@H](O)[C@H](O[C@H]3O[C@@H](CO)[C@@H](O)[C@@H](O)[C@@H]3O)[C@H]2O[C@@H]2O[C@H](CO)[C@H](O)[C@H](O)[C@H]2O)[C@H](O[C@@H]2O[C@@H]([C@H](O)CO)[C@H](O)[C@H]2O)[C@H]1O | 700
O=C(COCc1ccccc1)N[C@H]1[C@H](OCc2ccccc2)O[C@@H](CO[C@H]2O[C@@H](CO)[C@@H](O)[C@@H](O[C@H]3O[C@@H](CO)[C@@H](O)[C@H](O)[C@@H]3O)[C@@H]2O)[C@H](O[C@@H]2O[C@@H]([C@H](O)CO)[C@H](O)[C@H]2O)[C@H]1O | 1140
O=C(CO)N[C@H]1[C@H](OCc2ccccc2)O[C@@H](CO[C@H]2O[C@@H](CO)[C@@H](O)[C@@H](O[C@H]3O[C@@H](CO)[C@@H](O)[C@H](O)[C@@H]3O)[C@@H]2O)[C@H](O[C@@H]2O[C@@H]([C@H](O)CO)[C@H](O)[C@H]2O)[C@H]1O | 1260
O=C(CO)N[C@H]1[C@@H](OCc2ccccc2)O[C@H](CO[C@@H]2O[C@H](CO)[C@H](O)[C@H](O)[C@H]2O)[C@@H](O)[C@@H]1O | 980
CC(=O)N[C@H]1[C@H](OCc2ccccc2)O[C@@H](CO[C@H]2O[C@@H](CO)[C@@H](O)[C@@H](O[C@H]3O[C@@H](CO)[C@@H](O)[C@H](O)[C@@H]3O)[C@@H]2O)[C@H](O[C@@H]2O[C@@H]([C@H](O)CO)[C@H](O)[C@H]2O)[C@H]1O | 760
